Laboratory results taken from publication PMC2211560 (PLoS Medicine, 2008).
Several values for one entry are separate records, joined by “and”; a condition that tells them apart may be missing. Equal entries are not always repeated. Where two headings read alike, the source gives them in different places.

How the values were obtained:
[1] = human, in vivo, cited from earlier work
mTOR = assay: S6 ribosomal protein phosphorylation in tumor tissue by IHC (S2 versus S1); assay type: in vivo, human; details: ratio of median IHC staining score S2 to S1, individual patients
Source text: To quantify mTOR activity in matched S1 and S2 samples, we measured phosphorylation of S6 ribosomal protein by immunohistochemistry using two distinct phosphosite antibodies directed against Ser235/236 or Ser240/244. […] Immunohistochemistry (IHC) scoring is described in detail in Text S1.
The following antibodies were used for IHC: anti-PTEN (6H2.1, #ABM-2052, Cascade BioScience; 1:400 dilution), anti-Ki-67 (MIB-1, M7240, DakoCytomation; 1:100 Dilution), anti-phospho Ser235/236 S6 (91B2, #4857, Cell Signaling; 1:50 dilution), anti phospho Ser240/244 S6 (#2215, Cell Signaling; 1:200 dilution), anti-phospho-PRAS 40 (#44–1100G, Biosource; 1:200 dilution), anti-phospho Ser473 Akt (736E11, #3787, Cell Signaling; 1:50 dilution), anti-phospho Thr389 p70 S6 Kinase (#9205, Cell Signaling; 1:100 Dilution), and anti phospho Ser1108 eIF4G at 1:400 (#2441, Cell Signaling; 1:400 dilution). Antigen retrieval was performed using 0.01 M citrate buffer, pH 6.0 for 30 min in an oven and peroxidase activity was quenched with 3% hydrogen peroxide in water. Primary antibodies were diluted in PBS /2% bovine serum albumin/2% normal horse serum (for anti-PTEN) or TBS/0.1% Tween/5% normal goat serum (for phosphosite-specific antibodies) and applied overnight at 4 °C. Biotinylated secondary antibodies (Vector) were applied at 1:200 dilution for 45 min, and the avidin-biotin complex (Elite ABC, Vector) for 30 min. Vector NovaRed was used as the enzyme substrate to visualize specific antibody localization. […] All slides were counterstained with Harris hematoxylin.
To quantify mTOR activity, we measured phosphorylation of S6 ribosomal protein by immunohistochemistry. S6 is a direct substrate of S6 kinase 1, a downstream effector of mTOR action, and has been widely used as a pharmacodynamic readout of mTOR inhibition in preclinical studies. To ensure specificity, we used two distinct phosphosite antibodies directed against Ser235/236 or Ser240/244 (Figure 2B). Both sites are directly phosphorylated by S6 kinase 1, but Ser235/236 can also be phosphorylated by p90 ribosomal S6 kinase (RSK) and other kinases. All measurements were quantified by digital readout of 2,500–5,000 tumor cells per slide cut from paraffin-embedded tissue (Figure S1).
Supplementary file pmed.0050008.sg001.pdf: Figure S1 Digital Scoring of Immunohistochemical Stains Adjacent tissue sections from each tumor were stained with antibodies against Ki-67, phospho S6 ribosomal protein (S6RP), phospho-PRAS40, and PTEN (unpublished data). Five areas per slide, each representing approximately 500–1,000 tumor cells, were selected for digital scoring. Image conversion and scoring was performed using Soft Imaging System Software. The distribution of immunoreactivity within these 2,500–5,000 cells was graphed for each sample as a box plot. The “fold change” (F.C.) in S6 immunoreactivity (Table 2 and Figure S2) was calculated for each tumor as the ratio between median staining score in the S2 and the median staining score in the S1 sample. (135 KB PDF) Click here for additional data file.
Scoring of immunohistochemical stains. Immunohistochemical screening of tumor samples for PTEN expression was based on a manual scoring method which compares PTEN staining of tumor cells to the PTEN staining of endothelial cells within the same viewfield and assigns scores of 0 (absent in tumor cells), 1 (reduced in tumor cells relative to endothelial cells), and 2 (tumor cells staining similar to endothelial cells). Digital scores for PTEN, phospho-S6, and phospho-PRAS40 are based on absolute staining intensity of tumor cells as quantified following false-color conversion.

[2] = in vivo
Protocol: Adverse events were evaluated according to the National Cancer Institute Common Toxicity Criteria, version 2 (http://ctep.info.nih.gov/reporting/index.html).
The first three patients were enrolled at the initial dose level of 2 mg per day. After a four week evaluation period for dose limiting toxicity, a minimum of 3 more patients could be enrolled at the next dose level. […] Presurgical dosing included the loading dose followed by the daily maintenance dose until surgery. After the patient recovered from the effects of surgery, identical loading and maintenance doses (e.g., 6 mg and 2 mg, respectively) were administered. […] Assessment of drug safety was done following a routine schedule and supplemented by additional evaluation whenever a patient reported a new symptom. […] Toxicities were graded according to the National Cancer Institute Common Toxicity Criteria version 2.0. Treatments were held until recovery to ≤ grade 1 toxicity for ANC < 1000/µl, platelets < 80,000/ µl, grade 3 or grade 4 non-hematologic toxicities, and grade 4 hypercholesterolemia or hypertryglyceridemia. […] A 50 % dose reduction was made for ANC < 750/µl, platelets < 50,000/µl, or grade 4 non-hematological AE. Patients were allowed two dose reductions.

CO[C@H]1C[C@@H]2CC[C@@H](C)[C@@](O)(O2)C(=O)C(=O)N2CCCC[C@H]2C(=O)O[C@H]([C@H](C)C[C@@H]2CC[C@@H](O)[C@H](OC)C2)CC(=O)[C@H](C)/C=C(\C)[C@@H](O)[C@@H](OC)C(=O)[C@H](C)C[C@H](C)/C=C/C=C/C=C/1C [Rapamycin]
Vdss ([1]; iv): 1.1 to 1.3 L/kg | half-life [1]: 40 to 60 h | pS6 S2/S1 pSer235/236 (mTOR; 2 mg oral daily): 0.46 and 1.01 | pS6 S2/S1 pSer240/244 (mTOR; 2 mg oral daily): 0.61 and 0.82 and 0.85 | pS6 S2/S1 pSer235/236 (mTOR; 5 mg oral daily): 0.91 and 0.48 and 0.22 and 0.77 and 1.16 | pS6 S2/S1 pSer240/244 (mTOR; 5 mg oral daily): 0.94 and 0.51 and 0.18 and 0.58 and 0.54 | pS6 S2/S1 pSer235/236 (mTOR; 10 mg oral daily): 0.78 and 0.55 and 0.19 and 0.81 and 1.50 and 0.60 | pS6 S2/S1 pSer240/244 (mTOR; 10 mg oral daily): 0.27 and 0.58 and 0.44 and 0.60 and 0.56 and 0.91 | grade 3 or 4 toxicities ([2]; human): No grade 3 or 4 toxicities | patients with grade 3 adverse events (hypokalemia, hypercholesterolemia, and cytopenias) ([2]; human): Five of 15 | patients with grade 3 adverse events (hypokalemia, hypercholesterolemia, and cytopenias) [2]: five | perioperative bleeding complications [2]: no perioperative bleeding complications
